# Measured values: US20250002526A1, “PHARMACEUTICAL COMPOSITION HAVING ANTI-CANCER IMMUNOSTIMULATING EFFECT AND/OR IMMUNE CHECKPOINT INHIBITION POTENTIATING EFFECT” (KYUSHU UNIVERSITY, NATIONAL UNIVERSITY CORPORATION, priority 2021, published 2025)
# Entries after “also recorded” stand apart in the source; their conditions may differ.
# What was measured:
# [1] = molecular target: T1, recombinant human SULT2B1b protein (Homo sapiens, UniProt O00204); assay: SULT assay (in vitro SULT2B1b enzymatic activity measurement); format: biochemical
# T1 sequence (O00204 1-365): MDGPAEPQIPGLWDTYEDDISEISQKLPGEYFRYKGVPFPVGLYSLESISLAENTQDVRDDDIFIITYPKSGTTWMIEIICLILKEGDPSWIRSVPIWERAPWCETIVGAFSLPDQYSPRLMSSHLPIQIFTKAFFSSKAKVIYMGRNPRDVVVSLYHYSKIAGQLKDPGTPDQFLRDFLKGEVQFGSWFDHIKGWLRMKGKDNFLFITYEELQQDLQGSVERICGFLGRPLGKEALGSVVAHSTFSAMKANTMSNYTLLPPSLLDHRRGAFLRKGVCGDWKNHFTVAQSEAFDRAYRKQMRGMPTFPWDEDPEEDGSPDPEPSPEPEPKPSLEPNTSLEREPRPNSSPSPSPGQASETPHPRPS
# Experimental: For screening for a SULT2B1b inhibitor, enzymatic activity measurement for SULT2B1b was carried out by a method described in a previous report (NPL 2) with slight modifications.
# The reaction solution (50 μl) was composed of 1 to 5 μg of recombinant human SULT2B1b protein, 10 μM [^3H]cholesterol (approximately 4,000 dpm/pmol), 10 mM Tris-HCl (pH 7.5, containing 5 mM MgCl2) containing 0.1 mM 3′-phosphoadenosine 5′-phosphosulfate (PAPS), 0.2 mM 2-hydroxypropyl-β-cyclodextrin, and 5% (v/v) ethanol. Recombinant human SULT2B1b protein was pre-incubated with 1 μl of a test compound (final concentration: 40 or 200 μM) or DMSO (control) at room temperature for 15 minutes, 2 mM PAPS (2.5 μl) was then added to initiate reaction, the resultant was reacted at 37° C. for 15 minutes, and 0.8 ml of ethanol was added to terminate the reaction.
# The solution after the reaction was subjected to thin-layer chromatography (TLC) for separation, and then to a liquid scintillation counter to quantify radiolabeled CS.
# From the percentage to the amount ([…]) of radiolabeled CS generated through reaction in the absence of the test compound (DMSO) (control), the SULT2B1b activity (% activity) of SULT2B1b protein in the presence of the test compound was evaluated, and the effect of the test compound to inhibit SULT2B1b-mediated CS production (CS production inhibitory effect) was evaluated.
# In enzyme assay, SULT assay was performed with use of cholenoic acid as a compound to be tested at different cholesterol and PAPS concentrations (wherein 0.5 to 1 μg of recombinant human SULT2B1b protein was used, the preincubation time and reaction time were each 10 minutes), and the results were fitted to the Michaelis-Menten equation by using Prism 9 (GraphPad Software, Inc.) to perform enzyme kinetic analysis for the inhibition by cholenoic acid.
# SULT assay was performed for the compounds as test compounds by the method described in (14) of “II. Experimental procedure” in Experiment Example 1 to evaluate the SULT2B1b inhibitory effects of the compounds.
# [2] = test system: E0771-SULT-PD-L1 cells; assay: In vivo tumor growth of E0771-SULT-PD-L1 cells with anti-PD-L1 antibody treatment; parameters: species or system mouse; details: oral cholenoic acid combined with anti-PD-L1 antibody, days 9, 12 and 15 after transplantation
# Experimental: As described later for each experiment, 200 μl of an anti-mouse PD-L1 antibody (10F.9G2, 0.5 mg/ml, BioXCell) or a control of the matched isotype (LTF-2, 0.5 mg/ml, BioXCell) was intraperitoneally injected into tumor-bearing mice (see experimental results (3)).
# Cholenoic acid was suspended in 0.5% (w/v) methylcellulose 400 solution (FUJIFILM Wako Pure Chemical Corporation) at a proportion of 50 mg/ml, and a 200-μl portion (10 mg) of the suspension was orally administered to mice (see experimental results (6)). To examine the effect on the tumor infiltration of OTII cells or OTI T cells, 5 mg of cholenoic acid was orally administered three times at intervals of 6 hours in 2 days before the assay. […]
# The growth of tumors was monitored by measuring the vertical diameters of each tumor with a caliper twice a week and calculating the tumor volumes from the following expression.
smiles,measurement,setting,value
"C[C@H](CCC(=O)O)[C@H]1CC[C@H]2[C@@H]3CC=C4C[C@@H](O)CC[C@]4(C)[C@H]3CC[C@]12C [Compound 1, (R)-4-((3S,8S,9S,10R,13R,14S,17R)-3-hydroxy-10,13-dimethyl-2,3,4,7,8,9,10,11,12,13,14,15,16,17-tetradecahydro-1H-cyclopenta[a]phenanthren-17-yl)pentanoic acid]",inhibition mode with respect to PAPS (sulfate donor),"[1]; Michaelis-Menten / Lineweaver-Burk, 10 μM cholesterol",uncompetitively
same,inhibition mode with respect to cholesterol (substrate),"[1]; Michaelis-Menten / Lineweaver-Burk, 100 μM PAPS",non-competitively
same,IC50,"[1]; recombinant human SULT2B1b, read-out: IC50 value (enzyme assay)",24.8 µM
same,activity at 200 µM,"[1]; test compound 200 μM, relative to DMSO control (100%), read-out: in vitro SULT2B1b assay % activity at 200 μM",20.6%
same,growth of E0771-SULT-PD-L1 cells (tumor volume),[2],renders E0771-SULT-PD-L1 cells susceptible to immune checkpoint inhibition; also recorded: causes the growth of E0771-SULT-PD-L1 cells (tumor volume) to be suppressed
